Experiments:
TrkB [1] = molecular target: T1, TrkB (Mus musculus, UniProt P15209); experiment: Time course of TrkB activation in mouse brain; type: in vivo, C57BL/6J mice
T1 construct: from tissue; host or cells: mouse brain
Procedure: To compare the stimulatory effect on TrkB receptor in mouse brain, 1 mg/kg of these compounds was injected into C57BL/6J mice and monitored TrkB activation at different time points (see FIG. 28). […] In contrast, 7,8-DHF triggered TrkB activation 2 h after oral injection and peaked at 4 h and TrkB activity progressively faded away. The TrkB activity was demonstrable even at 16 h (FIG. 28).

[2] = test system: progenitor proliferation in hippocampus; experiment: Neurogenesis analysis in hippocampus (BrdU); type: in vivo, C57BL/6J mice; settings: 5 mg/kg daily for 21 days, compared to vehicle control, FIGS. 32 and 33
Procedure: Adult male mice (2-3 months old) were orally injected with saline, 4′-DMA-7,8-DHF and 7,8-DHF (5 mg/kg) for 21 days. Then BrdU (50 mg/kg) was i.p. injected. In 2 hours, the mice were perfused with 4% paraformaldehyde. Immunohistochemical staining was performed on formalin-fixed paraffin-embedded sections. Sections from brain were cut, deparaffinized in xylene and rehydrated in graded alcohols. The slides were boiled in 10 mM citric acid (pH 6.0) for 10 minutes followed by an incubation in 2 N HCl for 10 minutes in room temperature. The slides were then permeabilized and blocked with 1% BSA in 0.2% PBST. The incorporated BrdU were stained using anti-BrdU-FITC (Abcam, Inc; Cambridge, Mass.) at 4° C. for 16 hours. After three washes in PBS, the cells were stained with DAPI for another 10 minutes at room temperature. The slides were mounted with AquaMount (Lerner Laboratories; Pittsburgh, Pa.) containing 0.01% 1,4-diazobicyclo(2,2,2)octane and examined under a fluorescence microscope.
To test whether increasing TrkB activation by 4′-dimethylamino-7,8-dihydroxyflavone would elevate neurogenesis, adult male C57BL/6J mice were injected daily for 21 days with either vehicle, 7,8-DHF, or 4′-DMA-7,8-DHF (5 mg/kg). At the end of treatment (day 21), the animals were injected with BrdU (50 mg/kg, i.p.) to label the dividing cells and were sacrificed 2 hours later. […]

TrkA = TrkA (Mus musculus, UniProt Q3UFB7); experiment: Immunoblotting of brain lysates from forced swim test mice: TrkA; type: in vivo; design: from tissue; host or cells: mouse brain; settings: 5 mg/kg, 21 days oral, anti-p-TrkA 794, FIG. 35
Procedure: (§1) To explore whether 4′-DMA-7,8-DHF and 7,8-DHF have any antidepressant effect, a forced swim test (6 minutes, immobility recorded in the last 4 minutes) was conducted after chronic treatment of male C57BL/6J mice (8 mice/group) for 21 days via oral injection.

[3] = Toxicity after 3-week chronic treatment (organ pathology, complete blood count); type: in vivo, mice; settings: mouse, in vivo
Procedure: To explore whether 4′-dimethylamino-7,8-dihydroxyflavone and 7,8-dihydroxyflavone have any intolerable toxicity, the major organs from mice treated with both compounds at 5 mg/kg/day for 3 weeks were analyzed.

immobility = experiment: Forced swim test after 21 days oral treatment; type: in vivo, C57BL/6J mice; settings: 5 mg/kg, oral injection, FIG. 34
Procedure: Adult male mice (2-3 months old) were randomly submitted to a forced swim test without a pre-swim. Saline, 4′-DMA-7,8-DHF and 7,8-DHF (5 mg/kg) were orally injected for 21 days. The mice were allowed to adapt to the test room for 2 days. The mice were placed in a clear glass cylinder with a diameter of 16 cm, half-filled with clear water at 24° C.
as §1

TrkB [4] = molecular target: T1, TrkB; experiment: Immunoblotting of brain lysates from forced swim test mice: TrkB; type: in vivo; settings: 5 mg/kg, 21 days oral, anti-p-TrkB 817, FIG. 35
Procedure: as §1

[5] = test system: KA-induced caspase-3 activation; experiment: KA-induced neuronal cell death in TrkB F616A mice, oral TrkB agonists; type: in vivo, TrkB F616A knock-in mice
Procedure: TrkB F616A knockin mice (2-3 months old) were fed 1NMPP1 (25 μM) in drinking water one day before pharmacological reagent treatment. The next day, the mice were orally injected with 7,8-DHF or 4′-DMA-7,8-DHF (5 mg/kg) 4 hours before kainic acid (20 mg/kg). The control mice were injected with saline, 1NMPP1, kainic acid alone or administrated 7,8-DHF or 4′-DMA-7,8-DHF 4 hours before kainic acid. In 4 days, the mice were sacrificed and brains were homogenized and ultra-centrifuged. The supernatant (40 μg) was employed for SDS-PAGE and immunoblotting analysis with indicated antibodies, respectively.
To explore whether the neuroprotective effect of these small molecules is dependent on TrkB activation in vivo, TrkB F616A knock-in mice were used.

TrkB [6] = molecular target: T2, TrkB (Rattus norvegicus, UniProt Q63604); experiment: TrkB activation in primary cortical neurons (p-TrkB Y817 immunoblotting); type: cell-based; design: endogenous in cells; host or cells: primary cortical neurons
Procedure: Primary cultured rat cortical neurons were prepared as follows. E17 rat pups were decapitated and cortex was extirpated, cross chopped, and suspended by pipetting for separation in 5% fetal calf serum (FCS), 5% horse serum (HS) DMEM. The cell suspension was then centrifuged at 250×g for 5 minutes. This operation was repeated again. Cells were seeded into polyethyleneimine-coated 10 cm^2 dishes and 12-well plates including coated-coverslips and incubated at 37° C. in 5% CO2/95% air. After 3 hours, the culture medium was changed to Neurobasal containing B-27 supplement (Invitrogen; Carlsbad, Calif.) and incubated for 4 days. For maintenance, half of the culture medium was changed to fresh Neurobasal/B27 every 4 days. After 1 week, the dished cultured neurons were ready for use.
To compare the TrkB activation by the synthetic compounds of Examples 9 and 10 (see FIG. 26), primary cortical cultures were prepared. The cortical neurons were treated with 500 nM of various compounds for 30 min and collected the cell lysates. […] Replacing the H-bond acceptor O atom with hydrogen bond donor NH reduced its stimulatory effect. […] In comparison, 7,8-DHF provoked TrkB activation with the minimal concentration of 100 nM (FIG. 27, right panels).

caspase-3 activation = experiment: Active caspase-3 ELISA in glutamate-treated cortical neurons; type: cell-based, rat; settings: 50 μM glutamate for 16 hours
Procedure: To quantitatively compare the anti-apoptotic activity of 7,8-DHF and 4′-DMA-7,8-DHF, cortical neurons were prepared from E16 rat embryonic cells and pretreated with various indicated concentrations of 4′-DMA-7,8-DHF and 7,8-DHF for 30 min, followed by 50 μM glutamate for 16 hours. The cell lysates were quantitatively analyzed with an active caspse-3 ELISA.

[7] = test system: KA-induced neuronal apoptosis; experiment: Kainic acid time course assay, oral TrkB agonists (caspase-3 immunoblot of brain lysates); type: in vivo, C57BL/6J mice; settings: 1 mg/kg orally, KA 20 mg/kg i.p., FIG. 30 left
Procedure: Male C57BL/6 mice age 60 days were orally injected with a single dose of 4′-DMA-7,8-DHF or 7,8-DHF (1 mg/kg each). KA (20 mg/kg) was i.p. injected. Animals were continually monitored for 2 hours for the onset of seizure activity. At 0, 4 and 8 hours following TrkB agonist treatment, the animals were sacrificed and the brain lysates were analyzed by immunoblotting with p-TrkB-Y817, active caspase-3 and total TrkB antibodies.
To investigate whether these compounds exert any neuroprotective effects in animals, a time course assay was conducted.

immobility time = experiment: Forced swim test in TrkB F616A knockin mice with saline or 1NMPP1 pretreatment; type: in vivo; settings: drugs for five days, FIG. 36
Procedure: To assess whether the behavior responses by 7,8-DHF and its derivative are mediated by TrkB receptor, TrkB F616A knockin mice were utilized. The transgenic mice were subjected to saline or 1NMPP1 pretreatment (25 μM), respectively (drinking water provided one day prior to drug injection and maintained throughout whole experiment). The control and/or drugs were provided for five days. […] (Data presented in FIGS. 34, 35, and 36 as mean±SEM; *p<0.05 against vehicle, #P<0.01 against vehicle and ***P<0.0001 against vehicle, student t-test.)

Akt and Erk1/2 = Akt and Erk1/2 activation in cortical neurons from TrkB F616A knockin mice; type: cell-based; settings: inhibitor 100 nM
Procedure: (§2) To explore whether the neuroprotective action of 7,8-dihydroxyflavone is dependent on TrkB activation in vivo, TrkB F616A knockin mice were used. […] To further assess whether 7,8-dihydroxyflavone can mimic BDNF, cortical neurons were prepared from TrkB F616A knockin mice. The cortical neurons were pretreated for 30 minutes with either K252a Trk tyrosine kinase inhibitor (100 nM) or 1NMPP1 inhibitor (100 nM) followed by 0.5 μM 7,8-dihydroxyflavone for 30 minutes.

TrkB [8] = molecular target: T2, TrkB; experiment: Western analysis of TrkB activation in hippocampal neurons; type: cell-based; design: endogenous in cells; host or cells: primary hippocampal neurons; settings: FIG. 10
Procedure: To further examine whether 7,8-dihydroxyflavone can stimulate TrkB-mediated downstream signaling cascades, Western analysis was performed.
To further test that the stimulatory effect of 7,8-dihydroxyflavone is mediated through TrkB, cells were either untreated or treated with K252a, a selective inhibitor of the tyrosine kinase activity of the Trk family of neutrophin receptors.

TrkB F616A = molecular target: T3, TrkB F616A (Mus musculus, UniProt P15209, F616A); experiment: TrkB phosphorylation in cortical neurons from TrkB F616A knockin mice; type: cell-based; settings: inhibitor 100 nM, pretreated 30 minutes
T3 construct: endogenous in cells; host or cells: cortical neurons of TrkB F616A knock-in mice
Procedure: as §2

[9] = 1 mg/kg, oral injection, FIG. 28

T2 sequence (Q63604 32-821): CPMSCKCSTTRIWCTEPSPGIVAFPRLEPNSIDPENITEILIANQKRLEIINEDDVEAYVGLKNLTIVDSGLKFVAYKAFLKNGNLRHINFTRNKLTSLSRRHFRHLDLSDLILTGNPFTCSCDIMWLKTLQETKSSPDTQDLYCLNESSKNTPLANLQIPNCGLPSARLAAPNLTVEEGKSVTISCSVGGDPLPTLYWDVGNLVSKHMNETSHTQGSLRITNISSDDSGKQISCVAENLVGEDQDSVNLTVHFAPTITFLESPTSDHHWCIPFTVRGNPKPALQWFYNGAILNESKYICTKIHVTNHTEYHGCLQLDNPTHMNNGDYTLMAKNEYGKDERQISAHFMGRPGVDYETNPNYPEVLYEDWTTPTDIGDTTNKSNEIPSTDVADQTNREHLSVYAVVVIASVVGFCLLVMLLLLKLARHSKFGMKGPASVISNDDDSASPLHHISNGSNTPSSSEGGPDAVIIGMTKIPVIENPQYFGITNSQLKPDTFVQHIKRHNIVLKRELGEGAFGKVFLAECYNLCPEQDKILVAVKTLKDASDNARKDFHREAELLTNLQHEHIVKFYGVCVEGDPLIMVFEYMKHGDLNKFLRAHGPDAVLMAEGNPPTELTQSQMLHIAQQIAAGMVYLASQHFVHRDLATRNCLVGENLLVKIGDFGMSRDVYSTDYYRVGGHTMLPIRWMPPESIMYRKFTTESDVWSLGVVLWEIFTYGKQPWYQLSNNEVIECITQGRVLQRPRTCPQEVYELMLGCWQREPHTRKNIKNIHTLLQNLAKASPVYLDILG
T1 sequence (P15209 32-821): as the sequence (Q63604 32-821) above, with M3T, T9S, T10A, I32V, K63R, G84S, T153M, I185L, T394S, N770S counted along it
T3 sequence (P15209 32-821 F616A): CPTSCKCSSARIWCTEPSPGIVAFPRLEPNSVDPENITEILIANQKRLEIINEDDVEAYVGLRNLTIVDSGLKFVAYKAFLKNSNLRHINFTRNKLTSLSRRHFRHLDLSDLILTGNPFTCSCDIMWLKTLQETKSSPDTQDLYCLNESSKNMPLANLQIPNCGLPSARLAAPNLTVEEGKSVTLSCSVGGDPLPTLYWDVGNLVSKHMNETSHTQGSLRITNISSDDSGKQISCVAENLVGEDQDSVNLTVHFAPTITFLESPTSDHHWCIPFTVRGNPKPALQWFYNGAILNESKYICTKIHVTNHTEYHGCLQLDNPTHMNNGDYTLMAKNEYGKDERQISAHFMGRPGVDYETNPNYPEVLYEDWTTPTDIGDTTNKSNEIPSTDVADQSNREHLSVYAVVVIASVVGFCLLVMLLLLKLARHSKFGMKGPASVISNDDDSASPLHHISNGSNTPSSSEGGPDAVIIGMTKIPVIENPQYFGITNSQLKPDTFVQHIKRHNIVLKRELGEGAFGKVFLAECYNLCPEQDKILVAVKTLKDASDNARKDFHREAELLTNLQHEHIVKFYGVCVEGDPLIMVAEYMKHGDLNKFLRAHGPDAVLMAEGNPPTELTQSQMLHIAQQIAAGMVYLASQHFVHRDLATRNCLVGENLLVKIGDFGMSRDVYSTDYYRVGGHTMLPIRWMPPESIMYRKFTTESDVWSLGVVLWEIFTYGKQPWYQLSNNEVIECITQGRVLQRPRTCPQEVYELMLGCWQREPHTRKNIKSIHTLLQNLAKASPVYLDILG
Chain of TrkA (Q3UFB7 34-799): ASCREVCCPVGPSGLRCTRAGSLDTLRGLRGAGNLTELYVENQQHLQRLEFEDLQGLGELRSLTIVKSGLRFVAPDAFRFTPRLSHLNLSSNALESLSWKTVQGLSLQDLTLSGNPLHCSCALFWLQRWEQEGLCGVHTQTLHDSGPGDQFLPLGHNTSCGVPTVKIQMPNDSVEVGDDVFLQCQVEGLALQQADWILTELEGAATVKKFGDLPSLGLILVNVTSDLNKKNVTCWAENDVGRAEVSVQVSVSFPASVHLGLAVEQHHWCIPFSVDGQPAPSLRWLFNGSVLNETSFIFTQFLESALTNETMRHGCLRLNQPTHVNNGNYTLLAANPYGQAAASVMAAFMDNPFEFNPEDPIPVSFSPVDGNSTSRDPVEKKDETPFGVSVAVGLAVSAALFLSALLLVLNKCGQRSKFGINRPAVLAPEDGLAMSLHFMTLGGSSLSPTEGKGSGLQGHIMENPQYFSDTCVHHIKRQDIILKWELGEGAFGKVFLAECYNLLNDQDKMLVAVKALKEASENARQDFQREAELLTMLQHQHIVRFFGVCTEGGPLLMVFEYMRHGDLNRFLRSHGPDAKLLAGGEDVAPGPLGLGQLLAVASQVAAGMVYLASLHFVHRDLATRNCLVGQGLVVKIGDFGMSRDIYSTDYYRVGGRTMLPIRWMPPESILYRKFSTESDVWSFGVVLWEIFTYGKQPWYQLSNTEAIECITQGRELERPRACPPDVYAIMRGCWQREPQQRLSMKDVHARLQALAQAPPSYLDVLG

With `CN(C)c1ccc(-c2cc(=O)c3ccc(O)c(O)c3o2)cc1` [4′-DMA-7,8-DHF, 4′-Dimethylamino-7,8-dihydroxyflavone] the “TrkB activity at 16 h” value (TrkB [1]; [9]) was “partially decayed”, the “time at which TrkB activation was elicited” value (TrkB [1]; [9]) was 1 h and the “time at which TrkB activity peaked” value (TrkB [1]; [9]) was 8 h. The “agonistic effect on TrkB relative to 7,8-DHF” value (TrkB [1]; mouse, in vivo) was “about 10 fold”, the “duration of agonistic effect in animals relative to 7,8-DHF” value (TrkB [1]; mouse, in vivo) was “sustained longer” and the “neurogenesis (BrdU)” value [2] was “increased neurogenesis”. The “TrkA activation in mouse brain” value (TrkA) was “not TrkA activation”, the “complete blood count (CBC) versus control saline-treated mice” value [3] was “no significant difference” and the “toxicity to the mice” value [3] was “neither compound was toxic”. The swimming immobility (immobility) was “evidently reduced the immobility”, the “TrkB activation in mouse brain” value (TrkB [4]) was “provoke TrkB” and the “KA-caused caspase-3 activation” value ([5]; 5 mg/kg orally 4 hours before kainic acid (20 mg/kg), FIG. 31) was “markedly diminished”. The “protective effect after 1NMPP1 pretreatment” value ([5]; 1NMPP1 (25 μM) in drinking water, FIG. 31 top) was “abolished”, the “TrkB phosphorylation after 1NMPP1 pretreatment” value ([5]; FIG. 31, 2nd panel) was “notably blocked” and the TrkB activation (TrkB [6]; 500 nM, 30 min, FIG. 27 left) was “robustly provoked TrkB activation”. For the same compound, the “minimal concentration triggering TrkB activation (titration assay)” value (TrkB [6]; FIG. 27 right) was 10 nM, the “inhibitory effect on caspase-3 activation at 10 nM” value (caspase-3 activation; 10 nM) was “more robust inhibitory effect than 7,8-DHF” and the “Glutamate-provoked caspase-3 activation” value (caspase-3 activation; 50 nM or higher concentrations, FIG. 29) was “substantially blocked”. The “KA-induced neuronal apoptosis over time” value [7] was “gradually decreased”, the “immobility time after 1NMPP1 treatment” value (immobility time; 1NMPP1 25 μM in drinking water) was “neither 4′-DMA-7,8-DHF nor 7,8-DHF had any significant effect” and the “immobility time, saline group” value (immobility time) was “substantially reduced the immobility time”.
In the case of `COC(=O)[C@@]1(O)C[C@H]2O[C@]1(C)n1c3ccccc3c3c4c(c5c6ccccc6n2c5c31)C(=O)NC4` [K252a], the “blocking of BDNF-triggered Akt and Erk1/2 activation” value (Akt and Erk1/2) is reported as “not”, the “effect on TrkB tyrosine phosphorylation in cells exposed to 7,8-dihydroxyflavone” value (TrkB [8]) is reported as “blocked TrkB tyrosine phosphorylation” and the “blocking of BDNF-provoked TrkB phosphorylation” value (TrkB F616A) is reported as “not”. For the same compound, the “blocking of 7,8-dihydroxyflavone-provoked TrkB phosphorylation” value (TrkB F616A; 0.5 μM 7,8-dihydroxyflavone) was “not”.

— US9895344B2, “Treating various disorders with 7,8-dihydroxyflavone and derivatives thereof” (EMORY UNIVERSITY, priority 2008, dated 2018)
